Measurements taken from patent US20150342882A1, “METHODS OF TREATMENT USING CADOTRIL COMPOSITIONS” (Johnson & Johnson Consumer Inc., priority 2012, published 2015).
≈ marks a conversion by molar mass, not a printed value.

Assay: Water solubility of racecadotril
Format: physicochemical
Conditions: room temperature conditions

**Q.** With `CC(=O)SCC(Cc1ccccc1)C(=O)NCC(=O)OCc1ccccc1` (racemic) [Racecadotril, (RS)-benzyl N-[3-(acetylthio)-2-benzylpropanoyl]glycinate] as the molecule, how does the solubility read?
**A.** The solubility was ~10 µg/mL (≈ 25.9 µM).
